Test results reported in patent US10059704B2, “1,4-disubstituted 1,2,3-triazoles, methods for preparing same, and diagnostic and therapeutic uses thereof” (CENTRE NATIONAL DE LA RECHERCHE SCIENTIFIQUE (C.N.R.S.), priority 2011, dated 2018).
Like-named read-outs stand apart in the source and are kept apart here.

Legend:
[1] = molecular target: nicotinic receptors Rα7 (Rattus norvegicus, UniProt Q05941); experiment: biochemical; assay type: binding
[2] = rat frontal cortex membranes, [125I]α-bungarotoxin 2 nM, 22° C., 3 hours, Ki calculated from IC50 (Cheng and Prussof), read-out: Activity on Rα7

Chain of nicotinic receptors Rα7 (Q05941 23-502): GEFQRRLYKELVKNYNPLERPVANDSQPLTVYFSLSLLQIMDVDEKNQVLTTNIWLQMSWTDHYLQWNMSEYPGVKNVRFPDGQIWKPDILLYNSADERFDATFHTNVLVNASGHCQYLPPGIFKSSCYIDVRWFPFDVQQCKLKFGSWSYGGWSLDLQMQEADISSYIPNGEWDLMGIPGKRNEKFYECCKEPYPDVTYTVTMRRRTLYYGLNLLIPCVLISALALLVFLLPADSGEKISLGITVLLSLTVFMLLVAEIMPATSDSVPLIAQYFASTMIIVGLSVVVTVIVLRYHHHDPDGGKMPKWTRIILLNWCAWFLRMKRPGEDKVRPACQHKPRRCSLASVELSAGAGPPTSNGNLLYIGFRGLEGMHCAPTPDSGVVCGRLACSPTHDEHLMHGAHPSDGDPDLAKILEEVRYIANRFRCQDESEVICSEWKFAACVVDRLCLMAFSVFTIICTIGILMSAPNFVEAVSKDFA

SMILES	melting point	Ki [1] [nM]	Ki [1, 2] [nM]
OCc1cccc(-c2coc(-c3cn([C@H]4CN5CCC4CC5)nn3)c2)c1 [Compound 92, (R)-[3-[5-[1-[quinuclidin-3-yl]-1H-1,2,3-triazol-4-yl]-3-furyl]phenyl]methanol]	212 °C	115	–
OCc1cccc(-c2csc(-c3cn([C@H]4CN5CCC4CC5)nn3)c2)c1 [Compound 89, (R)-[3-[5-[1-[quinuclidin-3-yl]-1H-1,2,3-triazol-4-yl]-3-thienyl]phenyl]methanol]	211 °C	–	13
c1coc(-c2ccc(-c3cn([C@H]4CN5CCC4CC5)nn3)s2)c1 [Compound 62, (R)-3-(4-(5-(Furan-2-yl)thiophen-2-yl)-1H-1,2,3-triazol-1-yl)quinuclidine]	180 °C	–	10 ± 1
Brc1ccc(-c2cn([C@H]3CN4CCC3CC4)nn2)s1 [Compound 54, (R)-3-(4-(5-Bromothiophen-2-yl)-1H-1,2,3-triazol-1-yl) quinuclidine]	146 °C	13 ± 4	–
Clc1ccc(-c2cn([C@H]3CN4CCC3CC4)nn2)cc1 [Compound 39, (R)-3-(4-(4-Chlorophenyl)-1H-1,2,3-triazol-1-yl)quinuclidine]	144 °C	–	8 ± 3
OC1(c2cn(-c3ccc(Br)cc3)nn2)CN2CCC1CC2 (stereo not drawn)	214 °C	–	–
Brc1ccc(-c2cn([C@H]3CN4CCC3CC4)nn2)o1	144 °C	–	–
O=[N+]([O-])c1ccc(-c2cccc(-c3cn([C@H]4CN5CCC4CC5)nn3)c2)cn1	180 °C	–	–
O=Cc1ccc(-c2ccc(-c3cn([C@H]4CN5CCC4CC5)nn3)cc2)s1 [Compound 97, (R)-5-[4-[1-[quinuclidin-3-yl]-1H-1,2,3-triazol-4-yl]phenyl]thiophene-2-carbaldehyde]	228 °C	90 to 120	–
Nc1c(-c2ccccc2)nnn1[C@H]1CN2CCC1CC2 [Compound 60, (R)-4-Phenyl-1-(quinuclidin-3-yl)-1H-1,2,3-triazol-5-amine]	120 °C	11 ± 4	–
c1csc(-c2cn([C@H]3CN4CCC3CC4)nn2)c1 [Compound 53, (R)-3-(4-(Thiophen-2-yl)-1H-1,2,3-triazol-1-yl)quinuclidine]	137 °C	–	9.5 ± 3
Fc1ccc(-c2coc(-c3cn([C@H]4CN5CCC4CC5)nn3)c2)cn1 [Compound 91, (R)-3-[4-[4-(6-fluoro-3-pyridyl)-2-furyl]-1H-1,2,3-triazol-1-yl]quinuclidine]	210 °C	117	–
OCc1ccc(-c2ccc(-c3cn([C@H]4CN5CCC4CC5)nn3)cc2)cc1 [Compound 93, (R)-[4-[4-[1-[quinuclidin-3-yl]-1H-1,2,3-triazol-4-yl]phenyl]phenyl]methanol]	250 °C	137	–
FCc1cccc(-c2ccc(-c3cn([C@H]4CN5CCC4CC5)nn3)s2)c1	144 °C	–	–
c1csc(-c2ccc(-c3cn([C@H]4CN5CCC4CC5)nn3)cc2)c1 [Compound 96, (R)-3-[4-[4-(2-thienyl)phenyl]-1H-1,2,3-triazol-1-yl]quinuclidine]	214 °C	135	–
OCc1ccc(-c2cn([C@H]3CN4CCC3CC4)nn2)cc1 [Compound 38, (R)-(4-(1-(Quinuclidin-3-yl)-1H-1,2,3-triazol-4-yl)phenyl)methanol]	200 °C	–	–
FC1(c2cn(-c3ccc(Br)cc3)nn2)CN2CCC1CC2 (stereo not drawn) [Compound 71, 3-Fluoro-3-(1-(4-bromophenyl)-1H-1,2,3-triazol-4-yl)quinuclidine]	127 °C	–	150 ± 10
Fc1ccc(-c2cn([C@H]3CN4CCC3CC4)nn2)cc1F [Compound 45, (R)-3-(4-(3,4-difluorophenyl)-1H-1,2,3-triazol-1-yl) quinuclidine]	122 °C	–	10 ± 4
Fc1ccc(-c2ccc(-c3cn([C@H]4CN5CCC4CC5)nn3)cc2)cn1	181 °C	–	–
Brc1ccc(-c2cn([C@H]3CN4CCC3CC4)nn2)cc1 [Compound 41, (R)-3-(4-(4-Bromophenyl)-1H-1,2,3-triazol-1-yl)quinuclidine]	158 °C	6 ± 3	–
COc1ccc2cc(-c3cn([C@H]4CN5CCC4CC5)nn3)ccc2c1 [Compound 49, (R)-3-(4-(6-Methoxynaphthalen-2-yl)-1H-1,2,3-triazol-1-yl)quinuclidine]	186 °C	–	196 ± 21
Fc1ccc(-c2cn([C@@H]3CN4CCC3CC4)nn2)cc1 [Compound 57, (S)-3-(4-(4-Fluorophenyl)-1H-1,2,3-triazol-1-yl)quinuclidine]	139 °C	–	114 ± 38
c1csc(-c2ccc(-c3cn([C@H]4CN5CCC4CC5)nn3)s2)c1 [Compound 61, (R)-3-(4-(2,7-Bithiophen-5-yl)-1H-1,2,3-triazol-1-yl)quinuclidine]	182 °C	–	20 ± 2
Clc1ccc(-c2cccc(-c3cn([C@H]4CN5CCC4CC5)nn3)c2)cn1	80 °C (dec.)	–	–
c1cc(-c2cn([C@H]3CN4CCC3CC4)nn2)ccn1 [Compound 50, (R)-3-(4-(Pyridin-4-yl)-1H-1,2,3-triazole-1-yl)quinuclidine]	150 °C	–	–
FCc1ccc(-c2ccc(-c3cn([C@H]4CN5CCC4CC5)nn3)s2)cc1 [Compound 112, (R)-3-[4-[5-[4-(fluoromethyl)phenyl]-2-thienyl]-1H-1,2,3-triazol-1-yl]quinuclidine]	199 °C	–	5

SMILES	melting point	Ki [1] [nM]	Ki [1, 2] [nM]
OCc1cccc(-c2cccc(-c3cn([C@H]4CN5CCC4CC5)nn3)c2)c1 [Compound 99, (R)-[3-[3-[1-[quinuclidin-3-yl]-1H-1,2,3-triazol-4-yl]phenyl]phenyl]methanol]	201 °C	–	1.4
O=[N+]([O-])c1ccc(-c2ccc(-c3cn([C@H]4CN5CCC4CC5)nn3)s2)cn1	160 °C	–	–
c1ccc(-c2cn(C3CCCN4CCCCC34)nn2)cc1 (stereo not drawn)	150 °C	–	–
COC(=O)c1ccc(-c2ccc(-c3cn([C@H]4CN5CCC4CC5)nn3)s2)cc1Cl	200 °C	–	–
c1ccc(-c2cn([C@H]3CN4CCC3CC4)nn2)cc1 [Compound 37, (R)-3-(4-Phenyl-1H-1,2,3-triazol-1-yl)quinuclidine]	132 °C	–	8 ± 4
Fc1ccc(-c2cn([C@H]3CN4CCC3CC4)nn2)cc1 [Compound 42, (R)-3-(4-(4-Fluorophenyl)-1H-1,2,3-triazol-1-yl)quinuclidine]	180 °C	–	–
c1cc2cc(-c3cn([C@H]4CN5CCC4CC5)nn3)ccc2o1 [Compound 56, (R)-3-(4-(Benzofuran-5-yl)-1H-1,2,3-triazol-1-yl)quinuclidine]	178 °C	–	3 ± 1
OCc1ccc(-c2ccc(-c3cn([C@H]4CN5CCC4CC5)nn3)s2)cc1 [Compound 63, (R)-(4-(5-(1-(quinuclidin-3-yl)-1H-1,2,3-triazol-4-yl)thiophen-2-yl)phenyl)methanol]	253 °C	–	0.6 ± 0.2
c1ccc(-c2ccc(-c3cn([C@H]4CN5CCC4CC5)nn3)s2)cc1	184 °C	–	–
O=Cc1ccc(-c2cccc(-c3cn([C@H]4CN5CCC4CC5)nn3)c2)s1 [Compound 101, (R)-5-[3-[1-[quinuclidin-3-yl]-1H-1,2,3-triazol-4-yl]phenyl]thiophene-2-carbaldehyde]	150 °C	7	–
COc1cccc(-c2cn([C@H]3CN4CCC3CC4)nn2)c1 [Compound 47, (R)-3-(4-(3-Methoxyphenyl)-1H-1,2,3-triazol-1-yl)quinuclidine]	–	–	2.3 ± 1
OCc1ccc(-c2csc(-c3cn([C@H]4CN5CCC4CC5)nn3)c2)cc1 [Compound 86, (R)-[4-[5-[1-[quinuclidin-3-yl]-1H-1,2,3-triazol-4-yl]-3-thienyl]phenyl]methanol]	196 °C	–	–
c1cc(-c2ccc(-c3cn([C@H]4CN5CCC4CC5)nn3)s2)ccc1CN1CCCCC1 [Compound 103, (R)-3-[4-[5-[4-(1-piperidylmethyl)phenyl]-2-thienyl]-1H-1,2,3-triazol-1-yl]quinuclidine]	230 °C	–	0.3
Cl.ClCc1ccc(-c2cn([C@H]3CN4CCC3CC4)nn2)cc1	240 °C	–	–
COc1ccccc1-c1cn([C@H]2CN3CCC2CC3)nn1 [Compound 48, (R)-3-(4-(2-Methoxyphenyl)-1H-1,2,3-triazol-1-yl)quinuclidine]	120 °C	–	–
Cl.ClCc1ccc(-c2ccc(-c3cn([C@H]4CN5CCC4CC5)nn3)s2)cc1	255 °C	–	–
Fc1ccc(-c2cn(C3CCCN4CCCCC34)nn2)cc1 (stereo not drawn)	142 °C	–	–
COc1ccc(-n2cc(C3(O)CN4CCC3CC4)nn2)cc1 (stereo not drawn)	174 °C	–	–
Brc1csc(-c2cn([C@H]3CN4CCC3CC4)nn2)c1	106 °C	–	–
FCc1ccc(-c2cn([C@H]3CN4CCC3CC4)nn2)cc1 [Compound 58, (R)-3-(4-(4-(Fluoromethyl)phenyl)-1H-1,2,3-triazol-1-yl)quinuclidine]	138 °C	–	–
CN1CCN(Cc2cccc(-c3ccc(-c4cn([C@H]5CN6CCC5CC6)nn4)s3)c2)CC1	155 °C	–	–
Brc1coc(-c2cn([C@H]3CN4CCC3CC4)nn2)c1	129 °C	–	–
Fc1ccc(-c2csc(-c3cn([C@H]4CN5CCC4CC5)nn3)c2)cn1 [Compound 88, (R)-3-[4-[4-(6-fluoro-3-pyridyl)-2-thienyl]-1H-1,2,3-triazol-1-yl]quinuclidine]	136 °C	–	–
Fc1ccc(-c2ccc(-c3cn([C@H]4CN5CCC4CC5)nn3)s2)cn1 [Compound 87, (R)-3-[4-[5-(6-fluoro-3-pyridyl)-2-thienyl]-1H,1,2,3-triazol-1-yl]quinuclidine]	163 °C	–	–
OCc1cccc(-c2ccc(-c3cn([C@H]4CN5CCC4CC5)nn3)s2)c1 [Compound 85, (R)-[3-[5-[1-[quinuclidin-3-yl]-1H2,3-triazol-4-yl]-2-thienyl]phenyl]methanol]	181 °C	–	–
